According to US6699656B2, “Treatment and prevention of HIV infection by administration of derivatives of human chorionic gonadotropin” (University of Maryland Biotechnology Institute, priority 1996, dated 2004):
Bridges are numbered along the chain shown (N, C = ends). Where no end group is shown, it is not given here.

How the values were obtained:
HIV-1 [1] = system: HIV-1
HIV-1 [2] = settings: p24 antigen days 3 to 10; peptides 0.05 to 50 nmoles/ml, hCG 0.01 to 1,000 IU, native β-hCG 100 to 1,000 μg
Method: Sequences of the peptides are as follows:
HIV-1 infected cells were treated with the above preparations and the virus was measured.

KS Y-1 or KS-SLK cells = assay: KS clonogenic assay; assay type: cell-based, human; settings: 2 KS cell lines; peptides 50 nmoles/ml, CR127 2 nmoles/ml; 10 days
Method: Briefly, the KS Y-1 cells were obtained from mononuclear cells isolated from pleural effusion of an AIDS patient with KS involving the lungs. After the depletion of T lymphocytes, monocytes/macrophages and fibroblasts by the cytotoxicity method, using monoclonal antibodies against CD2, CD3, CD4, CD8, CD10 and CD14 membrane antigens and baby rabbit complement, the cells were cultured in the absence of exogenous growth factors to select for transformed cells.

KS Y-1 tumors = KS Y-1 tumors induced in immunodeficient mice; assay type: in vivo; settings: treatment from one week after tumor cell injection; peptides 10 μg daily 5 days, hCG APL 100 IU s.c. daily 7 days
Method: The effects of the peptides on KS tumor cells were also evaluated in vivo in the mouse model. To induce KS tumors in the mice, 1×10^6/ml KS Y-1 cells in 50 μl PBS or saline were injected subcutaneously into immunodeficient mice (beige-XID-BNX mice). […] Methods for detection of apoptosis (from tissue biopsies) were used, as described in Lunardi-Iskandar, Y. et al.(1995, Nature 375:64-68). Briefly, the samples were stained in situ for the presence of cells with DNA fragmentation. Tissue slides from formalin-fixed tumors were treated with terminal deoxynucleotide transferase for extension of DNA ends (hydroxyl 3′) and incorporation of digoxigenin-11-dUTP according to the manufacturer's instructions (Oncor, Gaithersburg, Md.). Anti-digoxigenin antibody conjugated with the enzyme peroxidase allowed detection of apoptotic cells that stain brown whereas viable cells stain blue.

[3] = system: hematopoietic progenitor cells; assay: Hematopoietic progenitor colony assays (CFU-MIX, BFU-e, CFU-GM); assay type: cell-based; settings: bone marrow and cord blood; hCG 200 IU/ml, peptides and subunits 100 μg/ml; 10 days
Excerpt: Hematopoietic progenitor cells (2×10^5 cell/ml) were isolated from normal bone marrow and cord blood and seeded in methylcellulose. […] Aggregates containing more than 50 cells after 10 days of culture were counted as colonies.

HIV-1 transgenic mice = assay type: in vivo
Kaposi's Sarcoma = settings: literature; cited from earlier work

Compound	inhibition of HIV-1 infection/replication in acutely infected cells (HIV-1 [2])	anti-KS effect in clonogenic assays (number of colonies) (KS Y-1 or KS-SLK cells)	effect on KS Y-1 tumors in mice (cell death, thin sections) (KS Y-1 tumors)	growth of hematopoietic progenitors (colonies) [3]	other results
CC(C)c1nc(CN(C)C(=O)N[C@H](C(=O)N[C@@H](Cc2ccccc2)C[C@H](O)[C@H](Cc2ccccc2)NC(=O)OCc2cncs2)C(C)C)cs1 [Ritonavir]	–	–	–	–	CD4+ T cells, patient PH-SPBE (HIV-1 [1]; Ritonavir added at 22 weeks to ongoing hCG treatment): over 300 mm^3
CC(C)(C)NC(=O)[C@@H]1CN(Cc2cccnc2)CCN1C[C@@H](O)C[C@@H](Cc1ccccc1)C(=O)N[C@H]1c2ccccc2C[C@H]1O [indinavir (Crixivan)]	–	–	–	–	viral load, patient PH-JPV (HIV-1 [1]; indinavir added after hCG induced pulmonary response): undetectable viral load
Cys Leu Gln Gly Val Leu Pro Ala Leu Pro Gln Val Val Cys (CLQGVLPALPQVVC; disulfide 1-14 (inferred)) [Satellin A2 peptide]	most active	strongest anti-tumor effects	extensive cell death	directly promoted	–
LQGVLPALPQVVC [β-hCG peptide 45-57]	most active	strongest anti-tumor effects	extensive cell death	directly promoted	–
Leu Gln Dab(Pro) Val Leu Pro Dab(Pro) Leu Pro Gln Val Val Cys [branched β-hCG 45-57]	–	–	–	–	hyperkeratosis of the skin / histology (HIV-1 transgenic mice; HIV-1 transgenic mice): normal histology; growth retardation and cachexia (HIV-1 transgenic mice; HIV-1 transgenic mice, branched peptide 10 μg to mothers s.c. daily for 10 days): reversal; survival (HIV-1 transgenic mice; all untreated mice died within 10 days, 10 μg to mothers s.c. daily for 10 days): survived; gp120 and nef protein by antibody staining (HIV-1 transgenic mice; pups, 10 μg to mothers s.c. daily for 10 days): down regulation
TCDDPRFQDSS [β-hCG peptide 109-119]	active	strongest anti-tumor effects	–	directly promoted	efficacy in the treatment of Kaposi's Sarcoma (Kaposi's Sarcoma): efficacious
α-hCG peptide 88-92: α-hCG peptide of amino acids 88-92 (YYHKS; UniProt P01215 112-116, looked up, fragment)	little or no effect	little or no inhibition	inactive	little or no effects	–
β-hCG peptide 6-16: β-hCG peptide of amino acids 6-16 (RPRCRPINATL; UniProt P0DN86 26-36, looked up, fragment)	little or no effect	little or no inhibition	inactive	little or no effects	–
β-hCG peptide 6-40: β-hCG peptide 6-40, forms the β-core (RPRCRPINATLAVEKEGCPVCITVNTTICAGYCPT; UniProt P0DN86 26-60, looked up, fragment)	–	–	slight activity	–	–
β-hCG peptide 7-40: β-hCG peptide of amino acids 7-40 (PRCRPINATLAVEKEGCPVCITVNTTICAGYCPT; UniProt P0DN86 27-60, looked up, fragment)	–	little or no inhibition	–	little or no effects	–
β-hCG peptide 34-49: β-hCG peptide of amino acids 34-49 (CAGYCPTMTRVLQGVL; UniProt P0DN86 54-69, looked up, fragment)	–	little or no inhibition	inactive	little or no effects	–
β-hCG peptide 38-57: β-hCG peptide of amino acids 38-57, overlaps satellin A1 (CPTMTRVLQGVLPALPQVVC; UniProt P0DN86 58-77, looked up, fragment)	–	little or no inhibition	slight activity	little or no effects	–
β-hCG peptide 55-90: β-hCG peptide 55-90, forms the β-core (VVCNYRDVRFESIRLPGCPRGVNPVVSYAVALSCQC; UniProt P0DN86 75-110, looked up, fragment)	–	–	slight activity	–	–
β-hCG peptide 57-93: β-hCG peptide of amino acids 57-93 (CNYRDVRFESIRLPGCPRGVNPVVSYAVALSCQCALC; UniProt P0DN86 77-113, looked up, fragment)	–	little or no inhibition	inactive	little or no effects	–
β-hCG peptide 74-95: β-hCG peptide of amino acids 74-95 (RGVNPVVSYAVALSCQCALCRR; UniProt P0DN86 94-115, looked up, fragment)	little or no effect	little or no inhibition	inactive	little or no effects	–
β-hCG peptide 93-100: β-hCG peptide of amino acids 93-100 (CRRSTTDC; UniProt P0DN86 113-120, looked up, fragment)	–	–	inactive	–	–
β-hCG peptide 100-110: β-hCG peptide of amino acids 100-110 (CGGPKDHPLTC; UniProt P0DN86 120-130, looked up, fragment)	–	little or no inhibition	inactive	little or no effects	–
β-hCG peptide 109-145: β-hCG carboxy-terminal peptide of amino acids 109-145 (TCDDPRFQDSSSSKAPPPSLPSPSRLPGPSDTPILPQ)	–	–	–	–	efficacy in the treatment of Kaposi's Sarcoma (Kaposi's Sarcoma): efficacious
β-hCG peptide 123-145: β-hCG peptide of amino acids 123-145	–	–	inactive	little or no effects	–
β-hCG peptide 134-144: β-hCG peptide of amino acids 134-144	–	–	inactive	little or no effects	–
